From ChEMBL document CHEMBL1201862, “PubChem BioAssay data set” (2004)
“And” between values parts separate entries of the source, which are not always exact repeats. Equal entries are not always repeated.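 Compound exposure: 48 hours, 5 concentrations, 96-well plates. GI50 marks 50% less growth.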 The source made the active and inactive calls. No stated cut-off is given here; in the data, active = GI50 up to about 1.1 µM and inactive = higher.

Key:
Assay in all cases: growth of human tumour cells (NCI), 48 h
786-0 = tested on: 786-0
CCRF-CEM = tested on: CCRF-CEM
COLO 205 = tested on: COLO 205
HOP-92 = tested on: HOP-92
Hs-578T = tested on: Hs-578T
MCF7 = tested on: MCF7
MDA-MB-231 = tested on: MDA-MB-231
MDA-MB-435 = tested on: MDA-MB-435
Malme-3M = tested on: Malme-3M
NCI-H226 = tested on: NCI-H226
NCI-H460 = tested on: NCI-H460
OVCAR-4 = tested on: OVCAR-4
OVCAR-8 = tested on: OVCAR-8
PC-3 = tested on: PC-3
RPMI-8226 = tested on: RPMI-8226
SNB-19 = tested on: SNB-19
SNB-75 = tested on: SNB-75
U-251 = tested on: U-251
UACC-62 = tested on: UACC-62
XF498 = tested on: XF498

SMILES	GI50 (786-0)	GI50 (CCRF-CEM)	GI50 (COLO 205)	GI50 (HOP-92)	GI50 (Hs-578T)	GI50 (MCF7)	GI50 (MDA-MB-231)	GI50 (MDA-MB-435)	GI50 (Malme-3M)	GI50 (NCI-H226)	GI50 (NCI-H460)	GI50 (OVCAR-4)	GI50 (OVCAR-8)	GI50 (PC-3)	GI50 (RPMI-8226)	GI50 (SNB-19)	GI50 (SNB-75)	GI50 (U-251)	GI50 (UACC-62)	GI50 (XF498)
NC(Cc1cc(Br)c(O)c(Br)c1)C(=O)O (stereo not drawn)	> 100 µM (inactive)	> 100 µM (inactive)	> 100 µM (inactive)	> 100 µM (inactive)	> 100 µM (inactive)	> 100 µM (inactive)	> 100 µM (inactive)	> 100 µM (inactive)	> 100 µM (inactive)	> 100 µM (inactive)	> 100 µM (inactive)	> 100 µM (inactive)	> 100 µM (inactive)	> 100 µM (inactive)	> 100 µM (inactive)	> 100 µM (inactive)	> 100 µM (inactive)	> 100 µM (inactive)	> 100 µM (inactive)	–
Cn1c(=S)c2nc(SCCN3CCCC3)[nH]c2n(C)c1=O	> 100 µM (inactive)	> 100 µM (inactive)	> 100 µM (inactive)	> 100 µM (inactive)	> 100 µM (inactive)	> 100 µM (inactive)	> 100 µM (inactive)	> 100 µM (inactive)	> 100 µM (inactive)	> 100 µM (inactive)	> 100 µM (inactive)	> 100 µM (inactive)	> 100 µM (inactive)	> 100 µM (inactive)	> 100 µM (inactive)	> 100 µM (inactive)	> 100 µM (inactive)	> 100 µM (inactive)	> 100 µM (inactive)	–
Clc1ccc(/C(=C\c2ccccc2)Cn2ccnc2)cc1	17.4 µM (inactive)	24.5 µM (inactive)	15.1 µM (inactive)	14.8 µM (inactive)	> 100 µM (inactive)	16.1 µM (inactive)	11.1 µM (inactive)	11.2 µM (inactive)	10.2 µM (inactive)	13.6 µM (inactive)	20.1 µM (inactive)	30.5 µM (inactive)	16.1 µM (inactive)	11.5 µM (inactive)	22.3 µM (inactive)	21 µM (inactive)	26.2 µM (inactive)	15.2 µM (inactive)	16.7 µM (inactive)	–
CN1CCC23c4c5ccc(Oc6nnnn6-c6ccccc6)c4OC2c2[nH]c4ccccc4c2CC3(O)C1C5 (stereo not drawn)	1.77 µM (inactive)	2.08 µM (inactive)	2.29 µM (inactive)	2.07 µM (inactive)	9.25 µM (inactive)	2.27 µM (inactive)	1.81 µM (inactive)	4.01 µM (inactive)	1.67 µM (inactive)	10.8 µM (inactive)	1.85 µM (inactive)	2.54 µM (inactive)	2.86 µM (inactive)	3.68 µM (inactive)	2.22 µM (inactive)	7.66 µM (inactive)	2.59 µM (inactive)	1.85 µM (inactive)	1.8 µM (inactive)	–
CCOC(=O)c1c(N2CCOCC2)[nH]c(=O)c(C(c2cccs2)c2c(O)c(C(=O)OCC)c(N3CCOCC3)[nH]c2=O)c1O	> 100 µM (inactive)	> 100 µM (inactive)	> 100 µM (inactive)	> 100 µM (inactive)	> 100 µM (inactive)	> 100 µM (inactive)	> 100 µM (inactive)	> 100 µM (inactive)	> 100 µM (inactive)	> 100 µM (inactive)	> 100 µM (inactive)	> 100 µM (inactive)	> 100 µM (inactive)	> 100 µM (inactive)	> 100 µM (inactive)	> 100 µM (inactive)	> 100 µM (inactive)	> 100 µM (inactive)	> 100 µM (inactive)	–
O=c1[nH]c2cc([N+](=O)[O-])c(Nc3c4ccccc4nc4ccccc34)c([N+](=O)[O-])c2[nH]1	2.39 µM (inactive)	4.42 µM (inactive)	2.1 µM (inactive)	2.48 µM (inactive)	7.18 µM (inactive)	2.59 µM (inactive)	3.21 µM (inactive)	2.77 µM (inactive)	1.77 µM (inactive)	3.13 µM (inactive)	2.36 µM (inactive)	3.07 µM (inactive)	2.43 µM (inactive)	3.32 µM (inactive)	2.55 µM (inactive)	5.02 µM (inactive)	3.68 µM (inactive)	3.58 µM (inactive)	1.6 µM (inactive)	–
C1=N\CCNCCNCC/N=C\c2ccc(cc2)OCc2cccc(n2)COc2ccc/1cc2	> 100 µM (inactive)	27.6 µM (inactive)	> 100 µM (inactive)	> 100 µM (inactive)	99.3 µM (inactive)	29.8 µM (inactive)	> 100 µM (inactive)	75.2 µM (inactive)	> 100 µM (inactive)	> 100 µM (inactive)	73.6 µM (inactive)	68.5 µM (inactive)	> 100 µM (inactive)	79.4 µM (inactive)	53.6 µM (inactive)	> 100 µM (inactive)	47.1 µM (inactive)	> 100 µM (inactive)	> 100 µM (inactive)	–
COc1cc(C)cc2c1C(=O)C(Br)=CC2=O	3.92 µM (inactive)	0.867 µM (active)	1.72 µM (inactive)	3.09 µM (inactive)	29.4 µM (inactive)	4.48 µM (inactive)	14.7 µM (inactive)	2.29 µM (inactive)	2.1 µM (inactive)	17.4 µM (inactive)	19.4 µM (inactive)	2.75 µM (inactive)	6.34 µM (inactive)	17 µM (inactive)	3.13 µM (inactive)	16.3 µM (inactive)	16.9 µM (inactive)	19.5 µM (inactive)	9.71 µM (inactive)	–
Cn1cc2c(=O)n3ncn(-c4ccc(Br)cc4)c3nc2n1	> 100 µM (inactive)	> 100 µM (inactive)	> 100 µM (inactive)	> 100 µM (inactive)	> 100 µM (inactive)	> 100 µM (inactive)	> 100 µM (inactive)	> 100 µM (inactive)	> 100 µM (inactive)	> 100 µM (inactive)	> 100 µM (inactive)	> 100 µM (inactive)	> 100 µM (inactive)	> 100 µM (inactive)	> 100 µM (inactive)	> 100 µM (inactive)	> 100 µM (inactive)	> 100 µM (inactive)	> 100 µM (inactive)	–
Cc1cccc(/N=C/C=C(\Cl)c2ccc3ccccc3c2)c1	13.9 µM (inactive)	4.15 µM (inactive)	17.9 µM (inactive)	24.1 µM (inactive)	26.6 µM (inactive)	16.4 µM (inactive)	15.9 µM (inactive)	18.1 µM (inactive)	17.1 µM (inactive)	34.1 µM (inactive)	28.4 µM (inactive)	11.2 µM (inactive)	18.4 µM (inactive)	21 µM (inactive)	7.91 µM (inactive)	13.9 µM (inactive)	> 39.3 µM (inactive)	14.8 µM (inactive)	15.1 µM (inactive)	–
Brc1cccc(C2ON=C(c3ccccc3)N2C23CC4CC(CC(C4)C2)C3)c1 (stereo not drawn)	> 10 µM (inactive)	> 10 µM (inactive)	> 10 µM (inactive)	5.42 µM (inactive)	> 10 µM (inactive)	> 10 µM (inactive)	> 10 µM (inactive)	> 10 µM (inactive)	> 10 µM (inactive)	> 10 µM (inactive)	> 10 µM (inactive)	> 10 µM (inactive)	> 10 µM (inactive)	> 10 µM (inactive)	> 10 µM (inactive)	> 10 µM (inactive)	6.19 µM (inactive)	> 10 µM (inactive)	> 10 µM (inactive)	–
Cc1ccc([C@H]2CC(=O)C[C@H](c3ccc(C)cc3)C23C(=O)c2ccccc2C3=O)cc1	17.1 µM (inactive)	14 µM (inactive)	37.2 µM (inactive)	13.6 µM (inactive)	19.9 µM (inactive)	17 µM (inactive)	54.7 µM (inactive)	41.3 µM (inactive)	46.7 µM (inactive)	34.5 µM (inactive)	47.2 µM (inactive)	18.6 µM (inactive)	31 µM (inactive)	14.9 µM (inactive)	43.2 µM (inactive)	26.9 µM (inactive)	15.8 µM (inactive)	16.7 µM (inactive)	37.7 µM (inactive)	–
Cc1cc(C)c(C(=O)C(C)C(c2ccccc2)c2ccc(Cl)cc2)c(C)c1 (stereo not drawn)	> 100 µM (inactive)	46.3 µM (inactive) and 67.5 µM (inactive)	> 100 µM (inactive)	–	–	–	–	–	–	> 100 µM (inactive)	> 100 µM (inactive)	49.4 µM (inactive) and 67.6 µM (inactive)	> 100 µM (inactive)	–	–	–	> 100 µM (inactive)	> 100 µM (inactive)	> 100 µM (inactive)	61.2 µM (inactive) and 33.3 µM (inactive)
Cc1cc(N(C)C)c2ccccc2[n+]1CCCCCCCCCC[n+]1c(C)cc(N(C)C)c2ccccc21.[O-][Cl+3]([O-])([O-])[O-].[O-][Cl+3]([O-])([O-])[O-]	2.59 µM (inactive)	0.577 µM (active)	0.265 µM (active)	1.64 µM (inactive)	1.52 µM (inactive)	0.434 µM (active)	0.491 µM (active)	0.516 µM (active)	11 µM (inactive)	3.33 µM (inactive)	0.348 µM (active)	1.63 µM (inactive)	1.07 µM (active)	0.589 µM (active)	0.128 µM (active)	0.512 µM (active)	0.47 µM (active)	0.124 µM (active)	0.989 µM (active)	–
COc1ccc(C/C(=N/O)C(=O)NCCc2cc(Br)c(OCCCN(C)C)c(Br)c2)cc1Br [APLYSAMINE 2]	20 µM (inactive)	–	18.8 µM (inactive)	–	–	–	–	–	27.6 µM (inactive)	–	17.3 µM (inactive)	17 µM (inactive)	21.9 µM (inactive)	–	–	16.3 µM (inactive)	18.9 µM (inactive)	17.7 µM (inactive)	–	12.9 µM (inactive)
